Here are results for 1 compound from ChEMBL document CHEMBL6153174, “Design and Synthesis of Novel Deazapurine DNMT 1 Inhibitors with In Vivo Efficacy in DLBCL” (J Med Chem, 2025).

Activity calls are given as the source filed them. No cut-off for these calls is given here.

As a reminder, the IC50 is the point on the concentration scale where inhibition reaches its midpoint. By inhibition is commonly meant how much of the control response was suppressed. A word on the AUC(0-t): it is the area under the concentration-time curve up to a stated or last time point. A higher AUC(0-t) goes with more exposure. As usually defined, the bioavailability is dose-corrected exposure relative to a reference, in per cent. Read a low bioavailability as little systemic uptake.

In data set [1] the target is T1, DNA (cytosine-5)-methyltransferase 1 (Homo sapiens, UniProt P26358). As to the kind of experiment: Inhibition of DNMT1 (unknown origin) preincubated for 15 mins followed by substrate and [3H-SAM] addition and measured after 60 mins by microbeta analysis.
The target of data set [2] is T2, Histone-lysine N-methyltransferase EHMT2 (Homo sapiens) (UniProt Q96KQ7).
T2 sequence (whole entry): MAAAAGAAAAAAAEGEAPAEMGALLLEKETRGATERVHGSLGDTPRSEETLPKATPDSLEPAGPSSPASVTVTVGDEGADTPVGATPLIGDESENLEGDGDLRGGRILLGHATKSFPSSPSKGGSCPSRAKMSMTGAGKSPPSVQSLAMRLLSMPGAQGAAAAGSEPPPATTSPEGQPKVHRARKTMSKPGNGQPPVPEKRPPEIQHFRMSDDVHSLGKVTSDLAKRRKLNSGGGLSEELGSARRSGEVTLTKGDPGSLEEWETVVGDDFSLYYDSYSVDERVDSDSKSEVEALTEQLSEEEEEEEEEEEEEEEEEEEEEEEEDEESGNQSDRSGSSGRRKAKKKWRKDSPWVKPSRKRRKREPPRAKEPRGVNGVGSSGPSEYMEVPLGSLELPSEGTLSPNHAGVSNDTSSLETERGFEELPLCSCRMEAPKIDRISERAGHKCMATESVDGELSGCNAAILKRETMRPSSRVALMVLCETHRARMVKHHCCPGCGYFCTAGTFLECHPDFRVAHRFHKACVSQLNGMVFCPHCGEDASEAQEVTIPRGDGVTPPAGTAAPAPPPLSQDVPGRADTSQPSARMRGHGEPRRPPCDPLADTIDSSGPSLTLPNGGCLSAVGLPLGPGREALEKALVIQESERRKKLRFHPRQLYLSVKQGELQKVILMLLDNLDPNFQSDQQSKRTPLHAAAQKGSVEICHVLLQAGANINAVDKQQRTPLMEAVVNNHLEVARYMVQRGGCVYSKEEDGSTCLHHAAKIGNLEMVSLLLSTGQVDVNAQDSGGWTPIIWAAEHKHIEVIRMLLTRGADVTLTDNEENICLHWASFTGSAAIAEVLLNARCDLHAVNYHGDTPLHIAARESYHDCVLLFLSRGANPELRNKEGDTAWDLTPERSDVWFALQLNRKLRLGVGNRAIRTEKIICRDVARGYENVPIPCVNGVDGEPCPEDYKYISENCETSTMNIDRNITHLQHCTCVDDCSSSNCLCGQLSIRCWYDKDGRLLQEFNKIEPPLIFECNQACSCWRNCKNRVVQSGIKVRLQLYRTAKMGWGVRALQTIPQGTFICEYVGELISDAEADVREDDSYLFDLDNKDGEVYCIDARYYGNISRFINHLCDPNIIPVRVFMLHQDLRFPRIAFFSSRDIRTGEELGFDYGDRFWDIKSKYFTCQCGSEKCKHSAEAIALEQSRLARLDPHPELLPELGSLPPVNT
Kind of data set: Inhibition of G9a (unknown origin) at 5 uM preincubated for 15 mins followed by substrate and [3H-SAM] addition and measured after 60 mins by microbeta analysis relative to control. The settings on record: time 75.0 min.

For data set [3], the system named is MV4-11. As to the kind of experiment: Antiproliferative activity against human MV4-11 cells assessed as inhibition of cell viability measured after 72 hrs by MTT assay. Conditions: MV4-11, 72 h. The class given is functional, cell-based. Background: Tetrazolium dyes change colour on reduction, which living cells bring about.
The test system of data set [4] is U-937. Kind of data set: Antiproliferative activity against human U-937 cells assessed as inhibition of cell viability measured after 72 hrs by MTT assay. The class given is functional, cell-based. Conditions: U-937, 72 h.
Data set [5] is described as follows: AUC (0 to t) in Sprague-Dawley rat at 10 mg/kg, po measured upto 24 hrs by LC/MS/MS analysis. Format: ADME, organism-based. Conditions: Sprague-Dawley, in vivo.
A short description of data set [6]: Oral bioavailability in Sprague-Dawley rat at 10 mg/kg measured upto 24 hrs by LC/MS/MS analysis. Conditions: Sprague-Dawley, in vivo. The class given is ADME, organism-based.
In data set [7] the test system is NCI-H1299. As to the kind of experiment: Antiproliferative activity against human NCI-H1299 cells assessed as inhibition of cell viability measured after 72 hrs by MTT assay. The settings on record: NCI-H1299, 72 h. The class given is functional, cell-based.
Data set [8] relates to HT-29. Kind of data set: Antiproliferative activity against human HT-29 cells assessed as inhibition of cell viability measured after 72 hrs by MTT assay. Conditions: HT-29, 72 h. The class given is functional, cell-based.
Data set [9] relates to HCT-116. Kind of data set: Antiproliferative activity against human HCT-116 cells assessed as inhibition of cell viability measured after 72 hrs by MTT assay. The settings on record: HCT-116, 72 h. The class given is functional, cell-based.
For data set [10], the system named is TMD8. Kind of data set: Induction of cell cycle arrest in human TMD8 cells assessed as accumulation of cells at G0-G1 phase at 0.5 uM incubated for 24 hrs by PI staining based flow cytometry analysis (reference value: 40.7%). Format: functional. On the technique in general: Flow cytometry measures light scatter and fluorescence of single cells or particles in a stream.

Data set [11] relates to TMD8. Kind of data set: Induction of cell cycle arrest in human TMD8 cells assessed as accumulation of cells at G2/M phase at 0.25 uM incubated for 24 hrs by PI staining based flow cytometry analysis (reference value: 20.4%). The class given is functional.
For data set [12], the system named is DOHH-2. Kind of data set: Induction of cell cycle arrest in human DOHH-2 cells assessed as accumulation of cells at G0-G1 phase at 0.25 uM incubated for 24 hrs by PI staining based flow cytometry analysis (reference value: 27.1%). The class given is functional.
Data set [13] deals with DOHH-2. As to the kind of experiment: Induction of cell cycle arrest in human DOHH-2 cells assessed as accumulation of cells at G2-M phase at 1.0 uM incubated for 24 hrs by PI staining based flow cytometry analysis (reference value: 27.8%). The class given is functional.
The test system of data set [14] is DOHH-2. As to the kind of experiment: Induction of apoptosis in human DOHH-2 cells assessed as late apoptotic cells measured after 48 hrs by annexin-V/FITC and PI staining based flow cytometry analysis. Format: functional, cell-based. Conditions: dose 0.25-5 µM.
For data set [15], the system named is TMD8. Kind of data set: Induction of apoptosis in human TMD8 cells assessed as late apoptotic cells at 5 uM measured after 48 hrs by annexin-V/FITC and PI staining based flow cytometry analysis (reference value: 5.13%). Format: functional.
Data set [16] concerns DOHH-2. As to the kind of experiment: Induction of apoptosis in human DOHH-2 cells assessed as early apoptotic cells at 0.25 uM measured after 48 hrs by annexin-V/FITC and PI staining based flow cytometry analysis (reference value: 5.69%). Format: functional.
Data set [17] deals with T1, DNA (cytosine-5)-methyltransferase 1. As to the kind of experiment: Inhibition of DNMT1 in human DOHH-2 cells assessed as inhibition of H3K9 methylation level at 1 uM incubated for 48 hrs by Western blot analysis. Format: cell-based. Background: Immunoblotting shows a protein as a band on a membrane.
Data set [18] can be described thus: Subacute toxicity in Balb/C mouse assessed as effect on platelet at 30 mg/kg, iv administered three times in a week for 2 weeks. Conditions: in vivo, 336 h. Format: organism-based.
Data set [19] is described as follows: Subacute toxicity in Balb/C mouse assessed as effect on heart at 30 mg/kg, iv administered three times in a week for 2 weeks. Format: organism-based. Conditions: in vivo, 336 h.
Data set [20] is described as follows: Subacute toxicity in Balb/C mouse assessed as effect on liver at 30 mg/kg, iv administered three times in a week for 2 weeks. The class given is organism-based. The settings on record: in vivo, 336 h.
The nature of data set [21]: Antitumor activity against human TMD8 cells harbouring […] xenografted in mouse model assessed as body weight change at 10 mg/kg, iv administered three times a week in presence of chidamide relative to control. Format: functional.
Data set [22] is described as follows: Antitumor activity against human TMD8 cells harbouring TP53 mutant xenografted in mouse model assessed as body weight change at 10 mg/kg, iv administered three times a week in presence of chidamide relative to control. Format: functional.

T1 sequence (P26358 whole entry): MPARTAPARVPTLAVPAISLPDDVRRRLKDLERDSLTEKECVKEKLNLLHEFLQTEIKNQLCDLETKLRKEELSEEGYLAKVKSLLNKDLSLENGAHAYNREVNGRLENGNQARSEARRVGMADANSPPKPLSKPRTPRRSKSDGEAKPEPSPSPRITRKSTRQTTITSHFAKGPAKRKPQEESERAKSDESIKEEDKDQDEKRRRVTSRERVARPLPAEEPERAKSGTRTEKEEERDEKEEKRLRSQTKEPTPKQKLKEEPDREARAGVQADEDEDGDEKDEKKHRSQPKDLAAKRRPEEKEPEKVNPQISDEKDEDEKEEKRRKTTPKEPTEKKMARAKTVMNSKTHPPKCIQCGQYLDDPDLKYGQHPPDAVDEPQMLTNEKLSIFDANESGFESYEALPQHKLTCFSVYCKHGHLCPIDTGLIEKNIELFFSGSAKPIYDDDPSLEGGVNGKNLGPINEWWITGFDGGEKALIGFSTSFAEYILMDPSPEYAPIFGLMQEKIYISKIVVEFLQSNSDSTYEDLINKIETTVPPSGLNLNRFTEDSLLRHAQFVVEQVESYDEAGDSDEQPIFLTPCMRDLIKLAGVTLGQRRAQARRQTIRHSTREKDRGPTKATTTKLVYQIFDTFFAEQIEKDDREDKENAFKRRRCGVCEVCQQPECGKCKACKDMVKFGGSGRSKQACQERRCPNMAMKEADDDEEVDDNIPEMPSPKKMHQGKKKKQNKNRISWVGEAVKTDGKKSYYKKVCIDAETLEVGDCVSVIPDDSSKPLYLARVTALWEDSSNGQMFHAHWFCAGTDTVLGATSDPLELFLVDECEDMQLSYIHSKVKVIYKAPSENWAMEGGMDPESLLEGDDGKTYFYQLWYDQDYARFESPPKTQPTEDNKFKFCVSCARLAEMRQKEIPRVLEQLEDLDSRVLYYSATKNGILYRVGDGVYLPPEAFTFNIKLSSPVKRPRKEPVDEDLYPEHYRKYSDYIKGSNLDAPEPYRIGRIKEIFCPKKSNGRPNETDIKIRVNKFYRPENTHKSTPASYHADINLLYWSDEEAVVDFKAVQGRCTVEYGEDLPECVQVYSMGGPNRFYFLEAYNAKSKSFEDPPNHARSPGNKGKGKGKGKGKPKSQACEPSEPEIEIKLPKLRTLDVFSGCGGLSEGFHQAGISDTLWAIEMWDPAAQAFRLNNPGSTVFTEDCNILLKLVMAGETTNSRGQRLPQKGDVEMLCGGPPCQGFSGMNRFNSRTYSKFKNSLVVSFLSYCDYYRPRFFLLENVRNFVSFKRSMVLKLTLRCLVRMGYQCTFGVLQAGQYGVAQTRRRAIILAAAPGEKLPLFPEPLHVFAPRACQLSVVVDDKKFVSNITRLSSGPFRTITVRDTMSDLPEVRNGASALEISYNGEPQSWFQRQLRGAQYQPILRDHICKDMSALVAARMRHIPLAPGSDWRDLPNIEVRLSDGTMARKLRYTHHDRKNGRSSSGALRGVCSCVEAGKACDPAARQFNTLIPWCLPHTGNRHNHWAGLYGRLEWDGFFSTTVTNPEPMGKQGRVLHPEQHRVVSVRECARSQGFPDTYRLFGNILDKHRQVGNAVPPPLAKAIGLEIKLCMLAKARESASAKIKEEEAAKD

On to `CN1CCC(Nc2nc(-c3ccnc(F)c3)nc3c2ccn3CCCN2CCCC2)CC1`, for which the IC50 in data set [1] turned out to be 2420 nM; in [3], 950 nM; in data set [4], 2210 nM; in [7] it was 2380 nM; in [8] it was 1060 nM; in data set [9] it was 720 nM. Also, the inhibition in data set [2] came out at 0.3%. The compound further returned an AUC(0-t) at 24 h in [5] of 236 ng·h/mL. In [6], this compound yielded a bioavailability of 23.4%. The Activity is 39% in data set [10]; 24.4% in data set [11]; 28.6% in data set [12]; 32% in [13]; “Dose-dependent-effect” in [14]; 17% in data set [15]. Moreover, the Activity in [16] is listed as 10.5%; in data set [18] it was “Non-toxic”; in data set [19] it was “Non-toxic”; in [20], “Non-toxic”; in data set [21], 1.1%; in data set [22], -1.5%. In addition, in [17], the inhibition result is “Active”.
